Assay results from paper PMC6731241, “L-Type Amino Acid Transporter 1 (LAT1/Lat1)-Utilizing Prodrugs Can Improve the Delivery of Drugs into Neurons, Astrocytes and Microglia” (Scientific Reports, 2019).
Read-outs that look alike come from different tables or passages of the source.

Key:
mouse primary astrocytes = experiment: Cellular uptake of compounds into primary astrocytes; format: cell-based
Experimental: (§1) Pre-incubation was done with 500 μL of pre-warmed HBSS at 37 °C for 10 min before adding substrates (250 μL in HBSS) for the uptake experiments. The ability of brain cell to carry a known LAT1/Lat1 substrate, the cells were incubated with [^14C]-L-leucine at 37 °C for 2.5 min in uptake buffer (HBSS, 250 μL) containing 0.76–75 μM (0.25 mCi/ml) of [^14C]-L-leucine (PerkinElmer, Waltham, MA, USA).
(§2) The protein concentrations on each plate were determined as a mean of three samples by Bio-Rad Protein Assay, based on the Bradford dye-binding method, using bovine serum albumin (BSA) as a standard protein and measuring the absorbance (595 nm) by multiplate reader (EnVision, Perkin Elmer, Inc., Waltham, MA, USA).

[1] = tested on: primary cortical neurons and immortalized microglia; experiment: Cellular uptake of compounds, neurons and microglia (joint range); format: cell-based, mouse; conditions: for Uptake of prodrug relative to parent drug 2: primary cortical neurons and immortalized microglia
Experimental: as §1, §2

[2] = Bioconversion in immortalized BV2 microglia homogenate; format: in vitro ADME, mouse; conditions: for half-life at 400 µM: mouse, pH 7.4, 37 °C
Experimental: (§3) The rates of bioconversion of all studied prodrugs in immortalized BV2 microglia and primary astrocytes homogenates were determined at 37 °C. The cell homogenates were prepared by homogenizing 10 × 10^6 cells/ml in HBSS (pH 7.4) with SoniPerp 150 Plus disintegrator (MSE Ltd., London, UK) for 2 s × 3. The incubation mixtures were prepared by mixing cell homogenate (final protein concentration 1.0 mg/mL) with HBSS buffer and 10 mM prodrug stock solution in DMSO (the final concentration of prodrugs was 400 µM and the DMSO concentration […]). The mixture was then incubated for 5 h and the samples (50 µL) were withdrawn at appropriate intervals. The proteins in the samples were precipitated with ice-cold acetonitrile (150 µL) and the samples were centrifuged for 5 min at 12 000 × g at room temperature. The supernatants were collected and analyzed by the LC-MS methods as reported earlier[19],[24],[26]. In blank reactions (chemical stability), the cell homogenate was replaced with same volume of buffer. The pseudo-first-order half-lives (t½) for the rates of bioconversion of the prodrugs were calculated from the slope of the linear portion of the plotted logarithm of remaining prodrug concentration versus time.

[3] = Bioconversion in primary astrocytes homogenate; format: in vitro ADME, mouse; conditions: for half-life at 400 µM: mouse, pH 7.4, primary astrocytes homogenate, 37 °C
Experimental: as §3

[4] = cited from earlier work
[5] = cited from earlier work; remark: listed apart in the source
[6] = design: method as in PMID 28662899, PMID 27266990; conditions: unspecific brain tissue binding, fraction unbound (fu,brain), equilibrium dialysis; cited from earlier work
[7] = tested on: immortalized microglia (BV2); experiment: Cell viability of immortalized microglia (resazurin); format: cell-based; conditions: 100 µM, 24 h
Experimental: 2. Effects of LAT1-Utilizing Prodrugs and Their Parent Drugs on the Cell Viability of Immortalized
Immortalized microglia (BV2) were seeded at the density of 2 × 10^4 cells/well onto collagen-coated 96-well plates. The cells were used for the proliferation experiments one day after seeding. A concentration of 100 µM of studied compounds were added into the growth medium and incubated for 24 h, after which the cell viability was determined by resazurin cell proliferation kit (Sigma, St.
Louis, MO, USA). The samples were measured fluorometrically by monitoring the increase in fluorescence at a wavelength of 590 nm using an excitation wavelength of 560 nm (EnVision, Perkin Elmer, Inc., Waltham, MA, USA), which is directly proportional to aerobic respiration and cellular metabolism of cells. The cell death was confirmed in the decrease of cell amount by visualizing the […]
Figure S2. The cell viability of immortalized microglia (BV2) after 24 h incubation of 100 µM LAT1-utilizing prodrugs (PD1-PD6) and their parent drugs (D1-D3) presented as percentages (%) compared to the untreated cells (ctrl) (mean ± SD, n=3-6). An asterisk denotes a statistically significant difference from the respective control (** P < 0.01, * P < 0.05 one-way ANOVA, followed by […]

Lat1 [8] = biological target: T1, Lat1 (Mus musculus, UniProt Q9Z127); experiment: Competitive prodrug uptake with LAT1/Lat1-inhibitor (KMH-233), all cell types; format: cell-based; design: neurons and microglia also express functional Lat1 on their cell surface; endogenous in cells; host or cells: mouse primary cortical neurons, mouse primary astrocytes, immortalized mouse microglia (BV2); conditions: 100 µM KMH-233, range over all cell types
T1 sequence (Q9Z127 whole entry): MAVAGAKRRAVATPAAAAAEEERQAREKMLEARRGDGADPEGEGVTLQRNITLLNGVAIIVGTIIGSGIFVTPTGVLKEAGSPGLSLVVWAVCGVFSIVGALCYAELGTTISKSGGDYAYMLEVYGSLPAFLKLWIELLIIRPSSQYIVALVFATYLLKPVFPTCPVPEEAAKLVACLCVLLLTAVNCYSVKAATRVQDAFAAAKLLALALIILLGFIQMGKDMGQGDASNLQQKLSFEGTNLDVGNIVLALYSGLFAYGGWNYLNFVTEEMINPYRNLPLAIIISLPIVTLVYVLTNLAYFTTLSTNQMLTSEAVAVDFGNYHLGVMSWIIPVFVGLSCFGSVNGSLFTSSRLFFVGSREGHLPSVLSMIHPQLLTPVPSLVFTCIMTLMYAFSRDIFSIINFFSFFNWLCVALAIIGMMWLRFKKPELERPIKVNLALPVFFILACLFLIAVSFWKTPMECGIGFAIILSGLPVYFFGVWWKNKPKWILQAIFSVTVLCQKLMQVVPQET
T1 sequence (P10852 whole entry partner): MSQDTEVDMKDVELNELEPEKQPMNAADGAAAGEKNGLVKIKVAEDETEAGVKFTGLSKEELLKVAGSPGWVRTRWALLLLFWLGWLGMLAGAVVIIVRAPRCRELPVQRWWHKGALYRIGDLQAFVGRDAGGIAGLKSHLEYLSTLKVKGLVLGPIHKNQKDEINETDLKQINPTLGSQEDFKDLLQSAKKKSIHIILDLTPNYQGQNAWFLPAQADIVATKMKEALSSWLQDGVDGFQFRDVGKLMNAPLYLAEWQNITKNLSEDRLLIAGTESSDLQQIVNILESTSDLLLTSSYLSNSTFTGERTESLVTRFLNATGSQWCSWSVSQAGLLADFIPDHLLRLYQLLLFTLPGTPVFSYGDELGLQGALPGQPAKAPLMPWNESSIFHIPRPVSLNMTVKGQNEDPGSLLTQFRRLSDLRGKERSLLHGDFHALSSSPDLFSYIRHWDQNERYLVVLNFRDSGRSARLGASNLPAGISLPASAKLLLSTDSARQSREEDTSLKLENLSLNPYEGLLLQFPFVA
Experimental: The competitive uptake in the presence of LAT1/Lat1-inhibitor (KMH-233) was carried out as described above with HBSS buffer solution containing 1–10 µM of the studied compounds. The cells were pre-incubated with 100 µM LAT1/Lat1-inhibitor for 10 min and the incubation mixture was removed before adding the studied prodrug and LAT1/Lat1-inhibitor on the cells. The competitive uptake (30 min) with the inhibitor was then carried out as the normal uptake described above. The amounts of studied compounds were analyzed by the LC-MS method and calculated from the spiked standard curve and normalized with the protein concentrations.

mouse primary neurons = experiment: Cellular uptake of compounds into primary neurons; format: cell-based; conditions: 25, 50 and 100 µM (Fig. 4c)
Experimental: as §1

[9] = tested on: immortalized microglia (BV2); experiment: Cellular uptake of compounds into immortalized microglia (BV2); format: cell-based, mouse; conditions: 25, 50 and 100 µM (Fig. 4c)
Experimental: as §1

LAT1/Lat1 = tested on: LAT1/Lat1; design: method as in PMID 11557028, PMID 15567481, PMID 19890975; conditions: human LAT1 transfected cells or cancer cells expressing hLAT1 or rodent Lat1; read-out: Affinity (Km), previously reported values; cited from earlier work
Lat1 [10] = biological target: T1, Lat1; experiment: [14C]-L-Leu uptake kinetics in primary astrocytes; conditions: 0.76–75 µM, 2.5 min
Lat1 [11] = biological target: T1, Lat1; experiment: [14C]-L-Leu uptake kinetics in primary cortical neurons; conditions: 0.76–75 µM, 2.5 min
Lat1 [12] = biological target: T1, Lat1; experiment: [14C]-L-Leu uptake kinetics in immortalized microglia (BV2); conditions: 0.76–75 µM, 2.5 min
Lat1 [13] = biological target: T1, Lat1; experiment: [14C]-L-Leu uptake kinetics, primary cortical neurons and immortalized microglia (joint range); conditions: range over primary cortical neurons and immortalized microglia
[14] = 400 µM, read-out: Half-life of bioconversion

SMILES: CC(C(=O)Nc1cccc(C[C@H](N)C(=O)O)c1)c1cccc(C(=O)c2ccccc2)c1 (some centres unmarked) [PD2]
- Uptake of prodrug relative to ketoprofen (mouse primary astrocytes): 10–80 times
- Uptake of prodrug relative to parent drug 2 [1]: 1–7 times
- Stability in cell homogenate ([2]; microglia homogenate): completely stable
- Stability in cell homogenate ([3]; astrocytes homogenate): completely stable
- Stability in brain S9 subcellular fraction ([4]; in vitro media lack co-factors): stable and do not release ketoprofen at all
- Half-life in vivo (release of ketoprofen) ([5]; brain): 0.45 h
- Half-life in vivo (release of ketoprofen) ([5]; liver): 0.383 h
- Half-life in vivo (release of ketoprofen) ([5]; plasma): 0.267 h
- Brain Protein Binding fu (%) [6]: 6.2%

SMILES: O=C1OCc2cc(-c3ccc(-c4ccc(CO)cc4)s3)ccc21 [D1, reference compound]
- Brain Protein Binding fu (%) [6]: 0.03%

SMILES: COc1cc(/C=C/C(=O)NCc2cccc(C[C@@H](N)C(=O)O)c2)ccc1O [PD4]
- Stability in cell homogenate ([2]; microglia homogenate): stable
- Stability in cell homogenate ([3]; astrocytes homogenate): stable
- Effect on cell viability [7]: slightly increased the cell proliferation
- Brain Protein Binding fu (%) [6]: 13.0%
- Inhibition of prodrug uptake by LAT1/Lat1-inhibitor (Lat1 [8]; 10 µM prodrug): 83.24–85.23%

SMILES: COc1cc(/C=C/C(=O)O)ccc1O [D3, ferulic acid, reference compound]
- Cell uptake (mouse primary neurons): below LLOQ
- Cell uptake [9]: below LLOQ
- Amount in cells (under the detection limit) ([1]; neurons and microglia): < 1.0 nM
- Brain Protein Binding fu (%) [6]: 26.0%

SMILES: CC(C(=O)Oc1cccc(C[C@H](N)C(=O)O)c1)c1cccc(C(=O)c2ccccc2)c1 (some centres unmarked) [PD3]
- Uptake of prodrug relative to ketoprofen (mouse primary astrocytes): 10–80 times
- Uptake of prodrug relative to parent drug 2 [1]: 1–7 times
- half-life at 400 µM ([2]; immortalized BV2 microglia homogenate, immortalized microglia homogenate, 400 µM, read-out: Half-life of bioconversion): 3.35 ± 0.224 h
- half-life at 400 µM [3, 14]: 4.71 ± 0.263 h
- Half-life in brain S9 subcellular fraction ([4]; approximate): ~1 h
- t½ in mouse brain S9 subcellular fraction ([4]; conversion to ketoprofen): 0.866 ± 0.0387 h
- Inhibition of prodrug uptake by LAT1/Lat1-inhibitor (Lat1 [8]; 1 µM prodrug): 47.41–58.32%

SMILES: N[C@H](Cc1cccc(C(=O)OCc2ccc(-c3ccc(-c4ccc5c(c4)COC5=O)s3)cc2)c1)C(=O)O [PD1]
- Uptake of prodrug relative to its parent drug ([1]; neurons and microglia): 10–17
- half-life at 400 µM ([2]; tissue homogenate, immortalized microglia homogenate, 400 µM, read-out: Half-life of bioconversion): 3.96 ± 0.738 h
- half-life at 400 µM [3, 14]: 5.81 ± 0.402 h
- Half-life in brain S9 subcellular fraction ([4]; in vitro, listed as Prodrug 1): approximately 4.7 h
- Half-life in brain S9 subcellular fraction ([4]; in vitro, listed as prodrug 1): approximately 5 h
- Half-life in vivo ([5]; brain): 1.4 h
- Half-life in vivo ([5]; liver): 1.25 h
- Half-life in vivo ([5]; plasma): 1.57 h
- Brain Protein Binding fu (%) [6]: 1.4%

SMILES: CC(C)C[C@H](N)C(=O)O [[^14C]-L-Leu, L-leucine]
- Km (LAT1/Lat1): 9 to 52 µM
- Km (Lat1 [10]): 65.9 ± 14.3 µM
- Vmax (Lat1 [10]): 2.92 ± 0.36 nmol/min/mg protein
- Km (Lat1 [11]): 146 ± 47.3 µM
- Vmax (Lat1 [11]): 1.90 ± 0.44 nmol/min/mg protein
- Vmax (Lat1 [12]): 0.84 ± 0.12 nmol/min/mg protein
- Km (Lat1 [13]): 85.8 to 146 µM
- Vmax (Lat1 [13]): 0.84–1.90 nmol/min/mg of protein

SMILES: COc1cc(/C=C/C(=O)Nc2cccc(C[C@H](N)C(=O)O)c2)ccc1O [PD5]
- Stability in cell homogenate ([2]; microglia homogenate): stable
- Stability in cell homogenate ([3]; astrocytes homogenate): stable
- Effect on cell viability [7]: slightly increased the cell proliferation
- Brain Protein Binding fu (%) [6]: 7.0%

SMILES: COc1cc(/C=C/C(=O)Oc2cccc(C[C@H](N)C(=O)O)c2)ccc1O [PD6]
- half-life at 400 µM ([2]; tissue homogenate, microglia homogenate, read-out: Estimated half-life of bioconversion): > 9 h
- half-life at 400 µM ([3]; astrocytes homogenate, read-out: Estimated half-life of bioconversion): > 9 h
- Intact prodrug detected after 5 h ([4]; brain S9 subcellular fraction): 70%
